{TEG-Chol} = cholesteryl attached through a triethylene glycol (TEG) linker
Legend:
[1] = test system: MDA-MB-231 (MDA-231) cells; experiment: Treatment of pre-formed 3-dimensional MDA-231 structures on MATRIGEL; assay type: cell-based, human; details: MDA-231, 53 μM, repeated every 3-4 days up to 17-21 days, FIG. 4
Experimental: The MDA-MB-231 (MDA-231) cells were cultured in regular culture medium, trypsinized and counted. 100×10^3 of MDA-231 cells were plated in regular culture medium (RCM), in wells of 24-well plates coated with 350 μl of MATRIGEL®. After the formation of 3-dimensional structures during 48 hrs without any treatment, the medium was changed, and structures were exposed to a final concentration of 53 μM of SEQ ID NO:3, 53 μM of SEQ ID NO:7, 53 μM of cholesteryl-TEG phosphoramidite, RCM, or their respective control media (RCM with water, RCM with DMSO or RCM with acetonitrile). The treatments were repeated every 3-4 days until a maximum time in culture of 17-21 days. The experiment was repeated three times. Digital photographs of the cells in the 24-well plates were taken using a Nikon Coolpix 990 digital camera connected to a Nikon inverted microscope model TMS.

Hs578T cells = experiment: Cell cycle progression in Hs578T multicellular spheroids (PI staining); assay type: cell-based, human; details: 53 μM, 72 hrs, FIG. 5
Experimental: Multicellular spheroids (MS) is an example of a special in vitro assay, in which tumor cells are cultured in a 3-dimensional manner to form a “tumor-like” structure. In this system, there is a reinforcement of cell-cell interactions that mimic microenvironmental conditions of malignant cells in solid tumors in vivo. In this type of assay, no extracellular matrix components are added. Cells cultured in this MS system differ from those in 2-dimensional systems (monolayer culture conditions). Some of these differences are related to structural and functional differentiation of tumor cells, changes in the cell cycle of tumor cells, “multicellular drug resistance”, and changes in the diffusion and penetration of drugs throughout layers of tumor cells (reviewed in Green et al., Anticancer Drug Des. 14:153, 1999).
About 100×10^3 Hs578T cells per spheroid were cultured in presence of 53 μM final concentration of SEQ ID NO:3, SEQ ID NO:7, 53 μM final concentration of cholesteryl-TEG phosphoramidite (cholTEG) or corresponding control media (regular culture medium (RCM), RCM with the same amount of water (RCMW) as the amount added with the SEQ ID NO:7, and RCM with the same amount of acetonitrile (RCMA) as the amount added with cholesteryl-TEG phosphoramidite). Five spheroids per each experimental condition were cultured for 72 hrs. Afterwards, cell cycle progression was evaluated by propidium iodide (PI) staining (Calbiochem, Novabiochem Corporation, San Diego, Calif.) using a FACScalibur flow cytometer (Becton Dickinson, Franklin Lakes, N.J.). Changes in the percentage of cells in the different phases of the cell cycle were analyzed using MODFIT LT software (Verity Software House Inc).

[2] = test system: EL-4 murine T lymphoma cells; experiment: EL-4 lymphoma implanted subcutaneously in C57/BL6 mice; assay type: in vivo; details: 1, 10, 100 mg/kg, after 4 weeks of treatment; versus saline and SEQ ID NO:3; dose-dependent
Experimental: EL-4 murine T lymphoma cells are implanted subcutaneously into C57/BL6 mice as previously described (Krawczyk et al., Cancer Immunol. Immunother. 40:347, 1995). The mice are divided into 7 groups of 10 mice. On day 0, group 1 mice receive saline, group 2 mice receive 1 mg/kg SEQ ID NO:3, group 3 mice receive 10 mg/kg SEQ ID NO:3, group 4 mice receive 100 mg/kg SEQ ID NO:3, group 5 mice receive 1 mg/kg SEQ ID NO:7, group 6 mice receive 10 mg/kg SEQ ID NO:7, group 7 mice receive 100 mg/kg SEQ ID NO:7. After 4 weeks of treatment, the mice are sacrificed and tumor mass is determined.

MDA-MB-231 cells [3] = experiment: MDA-MB-231 xenotransplanted tumors in nude mice (Example 22); assay type: in vivo; details: 0.5, 5, 50 mg/kg intravenously every 3 days, 6 doses maximum; versus saline and SEQ ID NO:3; dose-dependent
Experimental: MDA-MB-231 cells are xenotransplanted subcutaneously into nude mice. The mice are divided into 7 groups of 10 mice. After the tumors reach 5 mm in diameter, group 1 mice receive saline, group 2 mice receive 0.5 mg/kg SEQ ID NO:3, group 3 mice receive 5 mg/kg SEQ ID NO:3, group 4 mice receive 50 mg/kg SEQ ID NO:3, group 5 mice receive 0.5 mg/kg SEQ ID NO:7, group 6 mice receive 5 mg/kg SEQ ID NO:7, group 7 mice receive 50 mg/kg SEQ ID NO:7. Treatments are given intravenously every 3 days for 6 doses maximum. Mice are sacrificed when tumor reach 1 cm in diameter, at any sign of distress or at the end of the study (3 months from cell injection). Complete autopsies are performed. Tumor mass, presence of invasion and metastasis are determined.

MDA-MB-231 cells [4] = experiment: MDA-MB-231 xenotransplanted tumors in nude mice (Example 23); assay type: in vivo; details: 0.4, 4, 40 mg/kg intravenously every 3 days, 6 doses maximum; versus saline and SEQ ID NO:3; dose-dependent
Experimental: Breast cancer MDA-MB-231 cells are xenotransplanted subcutaneously in nude mice (1×10^7 cells). The mice are divided into 7 groups of 10 mice. After the tumors reach […] in diameter, group 1 mice receive saline, group 2 mice receive 0.4 mg/kg SEQ ID NO:3, group 3 mice receive 4 mg/kg SEQ ID NO:3, group 4 mice receive 40 mg/kg SEQ ID NO:3, group 5 mice receive 0.4 mg/kg SEQ ID NO:7, group 6 mice receive 4 mg/kg SEQ ID NO:7, group 7 mice receive 40 mg/kg SEQ ID NO:7. Treatments are given intravenously every 3 days for 6 doses maximum. Mice are sacrificed when tumor reach 1 cm in diameter, at any sign of distress or at the end of the study (3 months from cell injection). Complete autopsies are performed. Tumor mass, presence of invasion and metastasis are determined.

Substance | Effect on pre-formed 3-dimensional structures on MATRIGEL [1] | Cell cycle progression in multicellular spheroids (Hs578T cells) | Tumor mass [2] | Tumor mass (MDA-MB-231 cells [3]) | Tumor mass and metastasis (MDA-MB-231 cells [4])
5′ OH-CCACCC(TEG-cholesteryl) 3′ (3' {TEG-Chol}, sugars by position and backbone not given here) [SEQ ID NO:7] | disrupted the growth pattern of the structures | increased the percentage of cells in G2M and S-phase and decrease the percentage of cells in G0/G1 | less tumor mass | less tumor mass | less tumor mass and metastasis
5′ OH-CCACCC-OH 3′ (listed as DNA, chemistry not fully specified) [SEQ ID NO:3] | did not affect the 3-dimensional structures | did not significantly modify cell cycle progression | – | – | –

From patent publication US7635686B2, “Therapeutically useful triethyleneglycol cholesteryl oligonucleotides” (Bioniche Life Sciences, Inc., priority 2001, dated 2009)
